{"source": "paper PMC5078040", "about": "(Oncotarget, 2016)", "key": {"YES": {"biological_target": "T1, YES (Homo sapiens, UniProt P07947)", "T1 construct": "purchased DiscoveRx KINOMEscan", "assay": "KinomeScan", "assay_type": "binding", "settings": "1uM"}, "[1]": {"biological_target": "T2, RSK3(Kin.Dom.1-N-terminal) (Homo sapiens, UniProt Q15349)", "T2 construct": "RSK3(Kin.Dom.1-N-terminal); purchased DiscoveRx KINOMEscan", "T2 sequence (Q15349 1-388 limits assumed)": "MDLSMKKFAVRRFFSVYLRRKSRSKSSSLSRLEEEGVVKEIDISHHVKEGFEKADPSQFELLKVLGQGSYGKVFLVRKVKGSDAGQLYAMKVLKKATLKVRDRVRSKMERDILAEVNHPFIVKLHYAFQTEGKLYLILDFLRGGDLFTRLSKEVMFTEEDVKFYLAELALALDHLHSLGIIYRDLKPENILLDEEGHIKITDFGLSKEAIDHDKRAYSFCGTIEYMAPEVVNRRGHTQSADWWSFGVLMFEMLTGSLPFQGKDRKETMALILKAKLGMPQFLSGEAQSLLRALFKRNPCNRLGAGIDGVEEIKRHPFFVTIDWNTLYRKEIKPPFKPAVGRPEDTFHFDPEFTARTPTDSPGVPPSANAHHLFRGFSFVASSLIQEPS", "assay": "KinomeScan", "assay_type": "binding", "settings": "1uM"}, "MLCK": {"biological_target": "T3, MLCK (Homo sapiens, UniProt Q32MK0)", "T3 construct": "purchased DiscoveRx KINOMEscan", "assay": "KinomeScan", "assay_type": "binding", "settings": "1uM"}, "LRRK2(G2019S)": {"biological_target": "T4, LRRK2(G2019S) (Homo sapiens, UniProt Q5S007, G2019S)", "T4 construct": "purchased DiscoveRx KINOMEscan", "assay": "KinomeScan", "assay_type": "binding", "settings": "1uM"}, "ALK(L1196M)": {"biological_target": "T5, ALK(L1196M) (Homo sapiens, UniProt Q9UM73, L1196M)", "T5 construct": "purchased DiscoveRx KINOMEscan", "T5 sequence (Q9UM73 19-1620 L1196M)": "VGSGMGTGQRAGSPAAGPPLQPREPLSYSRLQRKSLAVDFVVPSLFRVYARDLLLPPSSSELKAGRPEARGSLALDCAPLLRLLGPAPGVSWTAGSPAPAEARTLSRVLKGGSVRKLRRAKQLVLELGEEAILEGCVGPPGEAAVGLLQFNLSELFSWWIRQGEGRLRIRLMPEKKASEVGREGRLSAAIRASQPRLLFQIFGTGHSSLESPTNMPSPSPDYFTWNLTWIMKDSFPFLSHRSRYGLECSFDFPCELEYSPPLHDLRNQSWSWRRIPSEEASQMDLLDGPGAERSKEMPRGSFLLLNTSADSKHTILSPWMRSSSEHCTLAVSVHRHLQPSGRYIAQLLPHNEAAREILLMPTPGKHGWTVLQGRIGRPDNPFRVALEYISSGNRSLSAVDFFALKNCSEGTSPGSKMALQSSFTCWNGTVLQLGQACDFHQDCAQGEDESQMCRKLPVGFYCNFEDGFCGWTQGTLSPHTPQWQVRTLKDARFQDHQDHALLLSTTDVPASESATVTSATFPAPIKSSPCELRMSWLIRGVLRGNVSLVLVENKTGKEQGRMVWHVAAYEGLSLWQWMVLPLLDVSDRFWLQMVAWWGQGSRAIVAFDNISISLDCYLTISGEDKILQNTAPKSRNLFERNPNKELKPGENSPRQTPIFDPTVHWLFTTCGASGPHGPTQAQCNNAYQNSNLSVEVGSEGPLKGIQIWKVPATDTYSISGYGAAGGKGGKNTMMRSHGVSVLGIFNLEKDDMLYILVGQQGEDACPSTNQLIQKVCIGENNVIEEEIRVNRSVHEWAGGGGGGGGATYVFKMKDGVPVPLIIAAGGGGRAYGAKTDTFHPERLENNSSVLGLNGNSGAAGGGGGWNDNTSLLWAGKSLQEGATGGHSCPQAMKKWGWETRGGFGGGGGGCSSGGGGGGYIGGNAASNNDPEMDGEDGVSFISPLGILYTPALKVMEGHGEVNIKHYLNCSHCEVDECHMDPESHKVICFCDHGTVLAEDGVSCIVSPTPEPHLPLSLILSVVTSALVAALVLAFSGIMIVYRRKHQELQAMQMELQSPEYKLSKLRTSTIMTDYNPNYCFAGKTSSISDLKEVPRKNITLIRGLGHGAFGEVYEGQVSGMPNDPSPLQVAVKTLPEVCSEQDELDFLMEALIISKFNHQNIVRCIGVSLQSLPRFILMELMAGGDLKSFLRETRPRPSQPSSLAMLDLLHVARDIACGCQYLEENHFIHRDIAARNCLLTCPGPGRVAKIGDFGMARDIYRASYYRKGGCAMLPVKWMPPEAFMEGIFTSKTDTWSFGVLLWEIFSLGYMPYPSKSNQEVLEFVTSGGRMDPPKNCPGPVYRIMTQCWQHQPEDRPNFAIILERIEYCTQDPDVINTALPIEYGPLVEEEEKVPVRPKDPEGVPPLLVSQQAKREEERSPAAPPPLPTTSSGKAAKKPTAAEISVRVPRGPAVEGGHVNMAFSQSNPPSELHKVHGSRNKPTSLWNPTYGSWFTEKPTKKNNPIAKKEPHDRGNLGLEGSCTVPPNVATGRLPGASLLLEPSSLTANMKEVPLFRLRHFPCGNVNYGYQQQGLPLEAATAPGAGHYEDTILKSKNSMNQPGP", "assay": "KinomeScan", "assay_type": "binding", "settings": "1uM"}, "CAMKK2": {"biological_target": "T6, CAMKK2 (Homo sapiens, UniProt Q96RR4)", "T6 construct": "purchased DiscoveRx KINOMEscan", "assay": "KinomeScan", "assay_type": "binding", "settings": "1uM"}, "IKK-epsilon": {"biological_target": "T7, IKK-epsilon (Homo sapiens, UniProt Q14164)", "T7 construct": "purchased DiscoveRx KINOMEscan", "assay": "KinomeScan", "assay_type": "binding", "settings": "1uM"}, "CLK3": {"biological_target": "T8, CLK3 (Homo sapiens, UniProt P49761)", "T8 construct": "purchased DiscoveRx KINOMEscan", "assay": "KinomeScan", "assay_type": "binding", "settings": "1uM"}, "[2]": {"biological_target": "T9, ABL1(T315I)-nonphosphorylated (Homo sapiens, UniProt P00519, T315I)", "T9 construct": "purchased DiscoveRx KINOMEscan", "assay": "KinomeScan", "assay_type": "binding", "settings": "1uM"}, "YANK2": {"biological_target": "T10, YANK2 (Homo sapiens, UniProt Q9NY57)", "T10 construct": "purchased DiscoveRx KINOMEscan", "assay": "KinomeScan", "assay_type": "binding", "settings": "1uM"}, "SYK": {"biological_target": "T11, SYK (Homo sapiens, UniProt P43405)", "T11 construct": "purchased DiscoveRx KINOMEscan", "assay": "KinomeScan", "assay_type": "binding", "settings": "1uM"}, "CLK1": {"biological_target": "T12, CLK1 (Homo sapiens, UniProt P49759)", "T12 construct": "purchased DiscoveRx KINOMEscan", "assay": "KinomeScan", "assay_type": "binding", "settings": "1uM"}, "DAPK3": {"biological_target": "T13, DAPK3 (Homo sapiens, UniProt O43293)", "T13 construct": "purchased DiscoveRx KINOMEscan", "assay": "KinomeScan", "assay_type": "binding", "settings": "1uM"}, "MYLK2": {"biological_target": "T14, MYLK2 (Homo sapiens, UniProt Q9H1R3)", "T14 construct": "purchased DiscoveRx KINOMEscan", "assay": "KinomeScan", "assay_type": "binding", "settings": "1uM"}, "[3]": {"biological_target": "T15, ABL1(F317I)-nonphosphorylated (Homo sapiens, UniProt P00519, F317I)", "T15 construct": "purchased DiscoveRx KINOMEscan", "assay": "KinomeScan", "assay_type": "binding", "settings": "1uM"}, "CAMK2G": {"biological_target": "T16, CAMK2G (Homo sapiens, UniProt Q13555)", "T16 construct": "purchased DiscoveRx KINOMEscan", "assay": "KinomeScan", "assay_type": "binding", "settings": "1uM"}, "TRKC": {"biological_target": "T17, TRKC (Homo sapiens, UniProt Q16288)", "T17 construct": "purchased DiscoveRx KINOMEscan", "T17 sequence (Q16288 32-839)": "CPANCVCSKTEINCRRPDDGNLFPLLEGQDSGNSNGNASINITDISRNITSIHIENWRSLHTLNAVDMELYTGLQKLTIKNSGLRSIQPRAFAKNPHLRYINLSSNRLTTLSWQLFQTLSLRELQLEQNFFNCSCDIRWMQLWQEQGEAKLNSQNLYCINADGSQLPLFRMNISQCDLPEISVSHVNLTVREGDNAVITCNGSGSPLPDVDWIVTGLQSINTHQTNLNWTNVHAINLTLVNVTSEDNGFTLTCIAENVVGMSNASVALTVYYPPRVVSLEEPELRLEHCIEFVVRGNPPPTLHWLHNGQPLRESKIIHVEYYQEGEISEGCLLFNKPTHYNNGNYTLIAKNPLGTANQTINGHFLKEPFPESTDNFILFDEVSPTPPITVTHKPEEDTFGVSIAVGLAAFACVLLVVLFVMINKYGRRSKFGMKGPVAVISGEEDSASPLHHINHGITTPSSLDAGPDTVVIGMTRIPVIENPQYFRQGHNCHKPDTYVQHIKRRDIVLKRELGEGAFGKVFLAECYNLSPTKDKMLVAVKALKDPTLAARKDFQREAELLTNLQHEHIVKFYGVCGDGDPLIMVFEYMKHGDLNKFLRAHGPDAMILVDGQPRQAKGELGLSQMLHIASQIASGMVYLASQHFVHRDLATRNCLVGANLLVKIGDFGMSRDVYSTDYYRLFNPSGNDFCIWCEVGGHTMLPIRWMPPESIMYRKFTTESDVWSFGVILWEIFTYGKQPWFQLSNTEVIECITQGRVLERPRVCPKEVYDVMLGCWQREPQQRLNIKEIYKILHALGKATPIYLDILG", "assay": "KinomeScan", "assay_type": "binding", "settings": "1uM"}, "WEE2": {"biological_target": "T18, WEE2 (Homo sapiens, UniProt P0C1S8)", "T18 construct": "purchased DiscoveRx KINOMEscan", "assay": "KinomeScan", "assay_type": "binding", "settings": "1uM"}, "ERK4": {"biological_target": "T19, ERK4 (Homo sapiens, UniProt P31152)", "T19 construct": "purchased DiscoveRx KINOMEscan", "assay": "KinomeScan", "assay_type": "binding", "settings": "1uM"}, "PDGFRB": {"biological_target": "T20, PDGFRB (Homo sapiens, UniProt P09619)", "T20 construct": "purchased DiscoveRx KINOMEscan", "assay": "KinomeScan", "assay_type": "binding", "settings": "1uM"}, "DCAMKL3": {"biological_target": "T21, DCAMKL3 (Homo sapiens, UniProt Q9C098)", "T21 construct": "purchased DiscoveRx KINOMEscan", "assay": "KinomeScan", "assay_type": "binding", "settings": "1uM"}, "HASPIN": {"biological_target": "T22, HASPIN (Homo sapiens, UniProt Q8TF76)", "T22 construct": "purchased DiscoveRx KINOMEscan", "assay": "KinomeScan", "assay_type": "binding", "settings": "1uM"}, "PIK3C2G": {"biological_target": "T23, PIK3C2G (Homo sapiens, UniProt O75747)", "T23 construct": "purchased DiscoveRx KINOMEscan", "assay": "KinomeScan", "assay_type": "binding", "settings": "1uM"}, "YSK1": {"biological_target": "T24, YSK1 (Homo sapiens, UniProt O00506)", "T24 construct": "purchased DiscoveRx KINOMEscan", "assay": "KinomeScan", "assay_type": "binding", "settings": "1uM"}, "MARK3": {"biological_target": "T25, MARK3 (Homo sapiens, UniProt P27448)", "T25 construct": "purchased DiscoveRx KINOMEscan", "assay": "KinomeScan", "assay_type": "binding", "settings": "1uM"}, "RIPK1": {"biological_target": "T26, RIPK1 (Homo sapiens, UniProt Q13546)", "T26 construct": "purchased DiscoveRx KINOMEscan", "assay": "KinomeScan", "assay_type": "binding", "settings": "1uM"}, "CSNK1G1": {"biological_target": "T27, CSNK1G1 (Homo sapiens, UniProt Q9HCP0)", "T27 construct": "purchased DiscoveRx KINOMEscan", "assay": "KinomeScan", "assay_type": "binding", "settings": "1uM"}, "BMPR1B": {"biological_target": "T28, BMPR1B (Homo sapiens, UniProt O00238)", "T28 construct": "purchased DiscoveRx KINOMEscan", "T28 sequence (O00238 14-502)": "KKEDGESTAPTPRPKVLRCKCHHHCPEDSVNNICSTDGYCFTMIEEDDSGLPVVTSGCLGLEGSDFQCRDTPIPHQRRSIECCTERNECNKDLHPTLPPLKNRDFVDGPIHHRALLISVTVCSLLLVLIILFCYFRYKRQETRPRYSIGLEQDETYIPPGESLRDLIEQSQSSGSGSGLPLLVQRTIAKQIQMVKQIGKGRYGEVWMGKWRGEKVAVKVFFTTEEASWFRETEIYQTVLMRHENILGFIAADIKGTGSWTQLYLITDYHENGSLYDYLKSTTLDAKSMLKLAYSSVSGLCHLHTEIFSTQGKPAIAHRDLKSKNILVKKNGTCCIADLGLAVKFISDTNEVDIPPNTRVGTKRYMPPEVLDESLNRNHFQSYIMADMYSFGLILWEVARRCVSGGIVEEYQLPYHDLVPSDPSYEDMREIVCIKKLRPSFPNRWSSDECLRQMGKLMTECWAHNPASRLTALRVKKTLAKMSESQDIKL", "assay": "KinomeScan", "assay_type": "binding", "settings": "1uM"}, "[4]": {"biological_target": "T29, EGFR(L747-E749del, A750P) (Homo sapiens, UniProt P00533, A750P/DEL747-749)", "T29 construct": "purchased DiscoveRx KINOMEscan", "T29 sequence (P00533 with tags, fused parts or gaps DEL747-749/A750P limits assumed)": "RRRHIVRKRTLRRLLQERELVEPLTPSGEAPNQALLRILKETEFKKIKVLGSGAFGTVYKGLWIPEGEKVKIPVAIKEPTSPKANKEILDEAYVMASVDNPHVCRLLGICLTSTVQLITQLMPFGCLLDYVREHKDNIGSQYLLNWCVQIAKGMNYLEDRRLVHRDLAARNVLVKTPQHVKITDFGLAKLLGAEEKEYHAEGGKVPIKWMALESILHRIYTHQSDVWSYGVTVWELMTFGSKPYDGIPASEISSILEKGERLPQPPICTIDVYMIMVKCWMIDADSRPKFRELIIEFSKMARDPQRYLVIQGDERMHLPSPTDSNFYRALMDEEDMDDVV", "assay": "KinomeScan", "assay_type": "binding", "settings": "1uM"}, "PRKD2": {"biological_target": "T30, PRKD2 (Homo sapiens, UniProt Q9BZL6)", "T30 construct": "purchased DiscoveRx KINOMEscan", "assay": "KinomeScan", "assay_type": "binding", "settings": "1uM"}, "PRKD1": {"biological_target": "T31, PRKD1 (Homo sapiens, UniProt Q15139)", "T31 construct": "purchased DiscoveRx KINOMEscan", "assay": "KinomeScan", "assay_type": "binding", "settings": "1uM"}, "SRC": {"biological_target": "T32, SRC (Homo sapiens, UniProt P12931)", "T32 construct": "purchased DiscoveRx KINOMEscan", "assay": "KinomeScan", "assay_type": "binding", "settings": "1uM"}, "LRRK2": {"biological_target": "T33, LRRK2 (Homo sapiens, UniProt Q5S007)", "T33 construct": "purchased DiscoveRx KINOMEscan", "assay": "KinomeScan", "assay_type": "binding", "settings": "1uM"}, "MAPKAPK2": {"biological_target": "T34, MAPKAPK2 (Homo sapiens, UniProt P49137)", "T34 construct": "purchased DiscoveRx KINOMEscan", "T34 sequence (P49137 whole entry)": "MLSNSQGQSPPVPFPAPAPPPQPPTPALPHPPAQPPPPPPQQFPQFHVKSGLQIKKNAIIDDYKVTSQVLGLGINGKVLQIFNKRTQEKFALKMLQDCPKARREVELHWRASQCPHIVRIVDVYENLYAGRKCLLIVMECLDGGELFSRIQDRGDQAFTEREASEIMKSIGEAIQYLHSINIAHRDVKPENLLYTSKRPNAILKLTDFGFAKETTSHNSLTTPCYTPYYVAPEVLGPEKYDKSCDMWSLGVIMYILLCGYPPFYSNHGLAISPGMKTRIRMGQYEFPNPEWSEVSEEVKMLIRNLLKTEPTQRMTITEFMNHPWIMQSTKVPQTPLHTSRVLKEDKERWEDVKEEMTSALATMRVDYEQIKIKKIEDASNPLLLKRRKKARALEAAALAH", "assay": "KinomeScan", "assay_type": "binding", "settings": "1uM"}, "ABL1-phosphorylated": {"biological_target": "T35, ABL1-phosphorylated (Homo sapiens, UniProt P00519)", "T35 construct": "purchased DiscoveRx KINOMEscan", "assay": "KinomeScan", "assay_type": "binding", "settings": "1uM"}, "MET": {"biological_target": "T36, MET (Homo sapiens, UniProt P08581)", "T36 construct": "purchased DiscoveRx KINOMEscan", "assay": "KinomeScan", "assay_type": "binding", "settings": "1uM"}, "PI3Kγ": {"biological_target": "PI3Kγ (Homo sapiens, UniProt P48736)", "assay": "biochemical", "method": "The reaction in each tube was started immediately by adding ATP and kept going for an hour under 37°C. After the tube cooled for 5 minutes at room temperature, 5 μL solvent reactions were carried out in a 384-well plate. Then 5 μL of ADP-Glo™ reagent was added into each well to stop the reaction and consume the remaining ADP within 40 minutes. At the end, 10 μL of kinase detection reagent was added into the well and incubated for 30 minutes to produce a luminescence signal. Luminescence signal was measured with an automated plate reader (Perkin-Elmer Envision) and each measurement was performed in triplicate."}, "PIM1": {"biological_target": "T37, PIM1 (Homo sapiens, UniProt P11309)", "T37 construct": "purchased DiscoveRx KINOMEscan", "T37 sequence (P11309 whole entry)": "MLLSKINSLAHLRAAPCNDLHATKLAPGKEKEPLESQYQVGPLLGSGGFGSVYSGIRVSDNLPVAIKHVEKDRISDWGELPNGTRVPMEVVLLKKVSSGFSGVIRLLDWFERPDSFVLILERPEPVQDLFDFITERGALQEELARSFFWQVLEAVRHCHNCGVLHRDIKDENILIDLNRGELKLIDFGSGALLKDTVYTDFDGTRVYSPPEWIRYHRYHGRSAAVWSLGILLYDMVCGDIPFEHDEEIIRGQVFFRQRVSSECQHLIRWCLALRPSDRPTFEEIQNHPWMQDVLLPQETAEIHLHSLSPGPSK", "assay": "KinomeScan", "assay_type": "binding", "settings": "1uM"}, "INSR": {"biological_target": "T38, INSR (Homo sapiens, UniProt P06213)", "T38 construct": "purchased DiscoveRx KINOMEscan", "assay": "KinomeScan", "assay_type": "binding", "settings": "1uM"}, "EGFR(E746-A750del)": {"biological_target": "T39, EGFR(E746-A750del) (Homo sapiens, UniProt P00533, DEL746-750)", "T39 construct": "purchased DiscoveRx KINOMEscan", "T39 sequence (P00533 with tags, fused parts or gaps DEL746-750 limits assumed)": "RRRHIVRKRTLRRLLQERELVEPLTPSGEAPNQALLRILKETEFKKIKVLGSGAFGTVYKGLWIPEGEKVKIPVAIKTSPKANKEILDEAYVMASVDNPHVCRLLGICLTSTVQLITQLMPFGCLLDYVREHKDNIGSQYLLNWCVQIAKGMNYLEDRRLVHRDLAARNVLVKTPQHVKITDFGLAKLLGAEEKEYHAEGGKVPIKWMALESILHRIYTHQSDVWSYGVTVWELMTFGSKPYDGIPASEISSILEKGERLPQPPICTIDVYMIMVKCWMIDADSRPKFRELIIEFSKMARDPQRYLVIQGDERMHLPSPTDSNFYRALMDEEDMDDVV", "assay": "KinomeScan", "assay_type": "binding", "settings": "1uM"}, "FGFR2": {"biological_target": "T40, FGFR2 (Homo sapiens, UniProt P21802)", "T40 construct": "purchased DiscoveRx KINOMEscan", "assay": "KinomeScan", "assay_type": "binding", "settings": "1uM"}, "SGK": {"biological_target": "T41, SGK (Homo sapiens, UniProt O00141)", "T41 construct": "purchased DiscoveRx KINOMEscan", "assay": "KinomeScan", "assay_type": "binding", "settings": "1uM"}, "INSRR": {"biological_target": "T42, INSRR (Homo sapiens, UniProt P14616)", "T42 construct": "purchased DiscoveRx KINOMEscan", "assay": "KinomeScan", "assay_type": "binding", "settings": "1uM"}}}
{"smiles": "Cc1nc(NC(=O)[C@@H](N)C(C)C)sc1-c1cnc(Cl)c(NS(=O)(=O)c2ccccc2)c1", "note": "[PI3KD-IN-015]", "values": [{"measurement": "KinomeScan YES", "setting": "YES", "value": 100}, {"measurement": "KinomeScan RSK3(Kin.Dom.1-N-terminal)", "setting": "[1]", "value": 100}, {"measurement": "KinomeScan MLCK", "setting": "MLCK", "value": 95}, {"measurement": "KinomeScan LRRK2(G2019S)", "setting": "LRRK2(G2019S)", "value": 100}, {"measurement": "KinomeScan ALK(L1196M)", "setting": "ALK(L1196M)", "value": 100}, {"measurement": "KinomeScan CAMKK2", "setting": "CAMKK2", "value": 96}, {"measurement": "KinomeScan IKK-epsilon", "setting": "IKK-epsilon", "value": 100}, {"measurement": "KinomeScan CLK3", "setting": "CLK3", "value": 100}, {"measurement": "KinomeScan ABL1(T315I)-nonphosphorylated", "setting": "[2]", "value": 100}, {"measurement": "KinomeScan YANK2", "setting": "YANK2", "value": 99}, {"measurement": "KinomeScan SYK", "setting": "SYK", "value": 100}, {"measurement": "KinomeScan CLK1", "setting": "CLK1", "value": 100}, {"measurement": "KinomeScan DAPK3", "setting": "DAPK3", "value": 91}, {"measurement": "KinomeScan MYLK2", "setting": "MYLK2", "value": 84}, {"measurement": "KinomeScan ABL1(F317I)-nonphosphorylated", "setting": "[3]", "value": 100}, {"measurement": "KinomeScan CAMK2G", "setting": "CAMK2G", "value": 100}, {"measurement": "KinomeScan TRKC", "setting": "TRKC", "value": 100}, {"measurement": "KinomeScan WEE2", "setting": "WEE2", "value": 100}, {"measurement": "KinomeScan ERK4", "setting": "ERK4", "value": 100}, {"measurement": "KinomeScan PDGFRB", "setting": "PDGFRB", "value": 98}, {"measurement": "KinomeScan DCAMKL3", "setting": "DCAMKL3", "value": 100}, {"measurement": "KinomeScan HASPIN", "setting": "HASPIN", "value": 94}, {"measurement": "KinomeScan PIK3C2G", "setting": "PIK3C2G", "value": 65}, {"measurement": "KinomeScan YSK1", "setting": "YSK1", "value": 100}, {"measurement": "KinomeScan MARK3", "setting": "MARK3", "value": 100}, {"measurement": "KinomeScan RIPK1", "setting": "RIPK1", "value": 100}, {"measurement": "KinomeScan CSNK1G1", "setting": "CSNK1G1", "value": 100}, {"measurement": "KinomeScan BMPR1B", "setting": "BMPR1B", "value": 80}, {"measurement": "KinomeScan EGFR(L747-E749del, A750P)", "setting": "[4]", "value": 100}, {"measurement": "KinomeScan PRKD2", "setting": "PRKD2", "value": 94}, {"measurement": "KinomeScan PRKD1", "setting": "PRKD1", "value": 100}, {"measurement": "KinomeScan SRC", "setting": "SRC", "value": 91}, {"measurement": "KinomeScan LRRK2", "setting": "LRRK2", "value": 100}, {"measurement": "KinomeScan MAPKAPK2", "setting": "MAPKAPK2", "value": 95}, {"measurement": "KinomeScan ABL1-phosphorylated", "setting": "ABL1-phosphorylated", "value": 85}, {"measurement": "KinomeScan MET", "setting": "MET", "value": 100}, {"measurement": "IC50", "setting": "PI3Kγ", "value": 125, "unit": "nM"}, {"measurement": "KinomeScan PIM1", "setting": "PIM1", "value": 100}, {"measurement": "KinomeScan INSR", "setting": "INSR", "value": 74}, {"measurement": "KinomeScan EGFR(E746-A750del)", "setting": "EGFR(E746-A750del)", "value": 100}, {"measurement": "KinomeScan FGFR2", "setting": "FGFR2", "value": 100}, {"measurement": "KinomeScan SGK", "setting": "SGK", "value": 70}, {"measurement": "KinomeScan INSRR", "setting": "INSRR", "value": 97}]}
